Reference: patent publication US9505740B2, “Cyclic amine derivative and pharmaceutical use thereof” (Toray Industries, Inc., priority 2013, dated 2016)
Where a name gives a salt, the structure may show the parent alone.

Experiments:
[1] = test system: mouse partial sciatic nerve ligation model; test: Mouse partial sciatic nerve ligation model (Seltzer model), von Frey test; assay type: in vivo; conditions: oral administration; Example 8 10 mg/kg (Day 7), Example 38 0.1 to 10 mg/kg (Day 8), pregabalin 10 mg/kg; 1, 2 and 3 hours after administration; vs partial sciatic nerve ligation+distilled water, p<0.05
From the text: Using a partial sciatic nerve ligation model (Seltzer model) in mice by which neuropathic pain can be evaluated, the analgesic action of a cyclic amine derivative (I) or a prodrug thereof or a pharmacologically acceptable salt thereof was investigated.
As the cyclic amine derivative (I) or a pharmacologically acceptable salt thereof, the compounds of Example 2, 4, 6, 8, 10, 12, 13, 15, 18, 22, 25, 27, 29, 31, 33, 66, 68 or 70 was used for evaluation. As the prodrug of the cyclic amine derivative (I) or a pharmacologically acceptable salt thereof, the compound of Example 38 was used for evaluation. The compound of Example 38 is a hydrochloride of a prodrug obtained by esterifying the carboxyl group of the compound of Example 39 with an ethyl group.
The mouse partial sciatic nerve ligation model was prepared in accordance with the method of Seltzer et al. (Malmberg et al., Pain, vol. 76, p. 215-222, 1998). • Slc: ICR mice (5 weeks old, male; from Japan SLC, Inc.) or Crl: CD1 (ICR) mice (5 weeks old, male; from CHARLES RIVER LABORATORIES JAPAN, INC.) were anesthetized with sodium pentobarbital (70 mg/kg, intraperitoneal administration). The sciatic nerve at the femoral region of the right hind paw of each mouse was exposed and triply ligated tightly with silk suture of 8-0 (from NATSUME […]., LTD.) under a stereomicroscope so that only half thickness of the nerve was trapped in the ligature. A group of mice thus treated was designated as a partial sciatic nerve ligation group. A group of mice whose sciatic nerve was just exposed and not ligated was designated as a sham surgery group.
Evaluation of neuropathic pain (hereinafter referred to as von Frey test) was performed as follows. Mice were conditioned for at least two hours in an acrylic cage for measurement (from NATSUME […]. LTD.) placed on a wire net. […]

[2] = test system: fibromyalgia syndrome model rats; test: Fibromyalgia syndrome model in rats (acidic saline), allodynia by von Frey filament; assay type: in vivo, rat; conditions: vs acidic saline-vehicle group
From the text: Using a fibromyalgia syndrome model in rats by which fibromyalgia syndrome can be evaluated, the analgesic action of a cyclic amine derivative (I) or a prodrug thereof or a pharmacologically acceptable salt thereof was investigated.
As the cyclic amine derivative (I) or a pharmacologically acceptable salt thereof, the compound of Example 13 was used for evaluation. As the prodrug of a cyclic amine derivative (I) or a pharmacologically acceptable salt thereof, the compound of Example 38 was used for evaluation. The compound of Example 38 is a hydrochloride of a prodrug obtained by esterifying the carboxyl group of the compound of Example 39 with an ethyl group.
To prepare a fibromyalgia syndrome model rat (Sluka et al., Journal of Pharmacology and Experimental Therapeutics, vol. 302, p. 1146-50, 2002; Nagakura et al., Pain, vol. 146, p. 26-33, 2009; Sluka et al., Pain, vol. 146, p. 3-4, 2009), which is generally employed widely in basic research for fibromyalgia syndrome, acidic saline (100 μL) adjusted to pH4.0 was intramuscularly injected to the gastrocnemius muscle of the right hind paw of Crl: CD(SD) rat (6 to 7 weeks old, male; from CHARLES RIVER LABORATORIES JAPAN, INC.) under continuous inhalation anesthesia with isoflurane, twice (once in each day of Day 1 and Day 6, wherein Day 1 was the date on which the acidic saline was initially administrated). The rats thus prepared were raised in a breeding room controlled at an indoor temperature of 21 to 25° C. and an indoor humidity of 40 to 70% under the conditions of voluntary intake of food and water. In the same manner, rats to which physiological saline in place of acidic saline was intramuscularly injected were raised. The rats thus raised and not afflicted with fibromyalgia syndrome (“physiological saline-vehicle” group in FIGS. 23 and 24) were also used in the experiment.
Day 7 after the initial administration of acidic saline, allodynia in each rat was measured. […] Note that, measurement of allodynia was performed by use of a von Frey filament (from North Coast Medical) in accordance with the method described in a known literature (Chaplan et al., Journal of Neuroscience Methods, vol. 53, p. 55-63, 1994). […]
The compound of Example 13 (3 and 10 mg/kg) was dissolved in physiological saline and then administered (intravenous administration) to fibromyalgia syndrome model rats through the tail vein (“acidic saline—the compound of Example 13” in FIG. 23). […] In thirty minutes after the intravenous administration, allodynia in individual rats was measured to evaluate an analgesic action. […]

[3] = test system: mouse partial sciatic nerve ligation model; test: Mouse partial sciatic nerve ligation model (Seltzer model), von Frey test; assay type: in vivo; conditions: intravenous administration (tail vein), Day 7; Examples 2, 4: 0.1 to 10 mg/kg; 13: 0.01 to 1 mg/kg; 18, 22: 0.1 and 1 mg/kg; 25, 27, 29, 31, 33, 66, 68, 70: 0.1 mg/kg; pregabalin 1 or 3 mg/kg; vs physiological saline group
[4] = oral administration, 10 mg/kg, one hour and three hours after administration, p<0.05

| SMILES | analgesic action, total score in the von Frey test [1] | allodynia, 50% response threshold (mean value of the right hind paw and the left hind paw) ([2]; intravenous administration, Example 13 3 and 10 mg/kg, pregabalin 10 mg/kg, 30 minutes after administration) | allodynia, 50% response threshold (mean value of the right hind paw and the left hind paw) [2, 4] | analgesic action, total score in the von Frey test [3] |
| --- | --- | --- | --- | --- |
| CC(C)C[C@H](CN)CC(=O)O [pregabalin, reference compound] | statistically significant analgesic action | statistically significantly improved | statistically significantly improved | statistically significant analgesic action |
| CCOC(=O)Cn1ccnc1CCC(=O)N1CCC(N(C)C)CC1 [Example 38, ethyl 2-(2-(3-(4-(dimethylamino)piperidin-1-yl)-3-oxopropyl)-1H-imidazol-1-yl)acetate hydrochloride] | statistically significant analgesic action |  | statistically significantly improved |  |
| Cn1ccnc1CCC(=O)N1CCC(N)CC1 [Example 8, 1-(4-aminopiperidin-1-yl)-3-(1-methyl-1H-imidazol-2-yl)propan-1-one hydrochloride] | statistically significant analgesic action |  |  |  |
